# Measured values as given in paper PMC7316778 (Nature Communications, 2020).
# “And” between values parts separate entries of the source, which are not always exact repeats. Identical values can stand only once. Like-named read-outs stand apart in the source and are kept apart here.
# Tests used:
# [1] = molecular target: FYN A (Homo sapiens, UniProt P06241); assay: SelectScreen kinase assay
# Experimental: (§1) Selectivity profiling assays were performed by the Invitrogen SelectScreen™ Services. […] The concentration of ATP was selected to be equal to the KM, unless indicated otherwise.
# [2] = molecular target: STK3 (MST2) (Homo sapiens, UniProt Q13188); assay: SelectScreen kinase assay
# Experimental: as §1
# [3] = molecular target: IKBKB (IKK beta) (Homo sapiens, UniProt O14920); assay: SelectScreen kinase assay
# Experimental: as §1
# [4] = molecular target: PAK7 (KIAA1264) (Homo sapiens, UniProt Q9P286); assay: SelectScreen kinase assay
# Sequence of PAK7 (KIAA1264) (Q9P286 whole entry): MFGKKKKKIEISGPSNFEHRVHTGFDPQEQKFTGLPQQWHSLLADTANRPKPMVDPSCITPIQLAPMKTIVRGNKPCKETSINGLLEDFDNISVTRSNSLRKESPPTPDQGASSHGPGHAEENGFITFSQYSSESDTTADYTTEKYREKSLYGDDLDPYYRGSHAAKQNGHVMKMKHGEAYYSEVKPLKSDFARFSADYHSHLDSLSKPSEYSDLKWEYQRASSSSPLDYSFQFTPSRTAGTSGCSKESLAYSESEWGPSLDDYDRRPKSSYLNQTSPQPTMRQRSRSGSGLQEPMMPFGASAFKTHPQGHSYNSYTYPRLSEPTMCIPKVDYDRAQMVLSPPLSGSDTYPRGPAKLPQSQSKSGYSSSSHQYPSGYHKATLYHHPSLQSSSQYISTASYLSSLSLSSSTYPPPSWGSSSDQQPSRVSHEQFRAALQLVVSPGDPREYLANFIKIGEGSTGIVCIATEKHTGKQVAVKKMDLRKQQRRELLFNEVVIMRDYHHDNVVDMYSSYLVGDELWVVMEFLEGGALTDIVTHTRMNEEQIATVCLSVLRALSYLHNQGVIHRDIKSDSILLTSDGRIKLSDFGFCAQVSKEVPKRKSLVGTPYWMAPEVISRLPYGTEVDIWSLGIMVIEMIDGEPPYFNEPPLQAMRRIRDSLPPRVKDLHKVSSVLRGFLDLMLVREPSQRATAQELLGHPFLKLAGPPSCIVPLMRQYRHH
# Experimental: as §1
# [5] = tested on: WT HL-60 cells; assay: CD11b surface expression, PMA-induced macrophage differentiation; type: cell-based, human; conditions: Figure 6d
# [6] = molecular target: DDR2 (Homo sapiens, UniProt Q16832); assay: SelectScreen kinase assay
# Experimental: as §1
# [7] = molecular target: HIPK2 (Homo sapiens, UniProt Q9H2X6); assay: SelectScreen kinase assay; conditions: for Inhibition at 1 µM (%): HIPK2, ZLYTE, ATP Km app
# Sequence of HIPK2 (Q9H2X6 whole entry): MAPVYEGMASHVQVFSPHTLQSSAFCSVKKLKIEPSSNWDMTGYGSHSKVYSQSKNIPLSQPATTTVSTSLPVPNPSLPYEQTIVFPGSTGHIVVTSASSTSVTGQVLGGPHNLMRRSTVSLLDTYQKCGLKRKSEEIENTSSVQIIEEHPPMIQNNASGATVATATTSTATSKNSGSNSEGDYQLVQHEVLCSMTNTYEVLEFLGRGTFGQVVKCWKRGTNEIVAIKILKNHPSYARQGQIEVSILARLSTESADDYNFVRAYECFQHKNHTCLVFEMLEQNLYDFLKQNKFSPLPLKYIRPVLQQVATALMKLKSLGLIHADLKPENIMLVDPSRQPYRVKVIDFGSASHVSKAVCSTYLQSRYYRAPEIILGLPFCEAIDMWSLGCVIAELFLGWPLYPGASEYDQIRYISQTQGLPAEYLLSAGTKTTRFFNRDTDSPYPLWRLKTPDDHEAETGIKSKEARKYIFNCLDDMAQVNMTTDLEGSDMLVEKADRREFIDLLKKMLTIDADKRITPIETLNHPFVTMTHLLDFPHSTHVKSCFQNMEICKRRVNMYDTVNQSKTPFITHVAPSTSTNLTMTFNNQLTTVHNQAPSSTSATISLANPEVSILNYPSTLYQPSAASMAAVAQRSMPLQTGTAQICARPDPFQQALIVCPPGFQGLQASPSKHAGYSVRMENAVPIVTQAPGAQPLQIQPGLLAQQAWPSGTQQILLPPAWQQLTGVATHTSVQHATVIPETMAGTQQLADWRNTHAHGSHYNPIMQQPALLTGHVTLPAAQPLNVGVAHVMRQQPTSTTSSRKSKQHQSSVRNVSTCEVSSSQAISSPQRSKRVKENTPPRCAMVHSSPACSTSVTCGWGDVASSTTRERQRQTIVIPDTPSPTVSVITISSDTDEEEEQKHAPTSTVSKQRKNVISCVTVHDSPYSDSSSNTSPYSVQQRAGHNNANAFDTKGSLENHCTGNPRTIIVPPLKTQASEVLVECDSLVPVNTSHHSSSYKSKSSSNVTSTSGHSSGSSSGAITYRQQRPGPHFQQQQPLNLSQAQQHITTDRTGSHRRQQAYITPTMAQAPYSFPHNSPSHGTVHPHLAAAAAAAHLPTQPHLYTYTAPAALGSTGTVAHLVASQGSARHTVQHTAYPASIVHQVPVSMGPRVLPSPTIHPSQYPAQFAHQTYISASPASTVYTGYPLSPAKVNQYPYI
# Experimental: as §1
# [8] = molecular target: SIK1 (Homo sapiens, UniProt P57059); assay: SelectScreen kinase assay
# Sequence of SIK1 (P57059 whole entry): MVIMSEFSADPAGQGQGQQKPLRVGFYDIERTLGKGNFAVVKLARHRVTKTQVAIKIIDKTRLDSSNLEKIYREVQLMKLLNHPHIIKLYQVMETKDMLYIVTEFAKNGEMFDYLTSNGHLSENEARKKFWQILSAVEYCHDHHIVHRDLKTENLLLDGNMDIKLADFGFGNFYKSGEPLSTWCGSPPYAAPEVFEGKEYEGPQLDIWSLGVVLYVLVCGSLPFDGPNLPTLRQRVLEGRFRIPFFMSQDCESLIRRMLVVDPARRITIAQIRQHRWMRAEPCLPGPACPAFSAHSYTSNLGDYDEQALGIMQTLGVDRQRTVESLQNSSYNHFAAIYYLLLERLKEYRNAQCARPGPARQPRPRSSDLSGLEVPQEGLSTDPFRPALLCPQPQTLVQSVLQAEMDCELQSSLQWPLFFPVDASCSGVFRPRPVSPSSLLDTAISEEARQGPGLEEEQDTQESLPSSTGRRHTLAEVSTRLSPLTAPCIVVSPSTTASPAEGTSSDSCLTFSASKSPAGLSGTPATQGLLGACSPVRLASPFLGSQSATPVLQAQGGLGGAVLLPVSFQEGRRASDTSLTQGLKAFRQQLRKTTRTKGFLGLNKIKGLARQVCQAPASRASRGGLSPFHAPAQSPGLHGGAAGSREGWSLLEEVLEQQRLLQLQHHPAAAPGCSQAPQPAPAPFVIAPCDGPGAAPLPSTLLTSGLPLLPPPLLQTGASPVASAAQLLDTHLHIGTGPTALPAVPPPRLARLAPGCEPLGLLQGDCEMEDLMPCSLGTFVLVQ
# Experimental: as §1
# [9] = molecular target: PRKACA (PKA) (Homo sapiens, UniProt P17612); assay: SelectScreen kinase assay
# Experimental: as §1
# [10] = molecular target: T1, ACVR1B (ALK4) (Homo sapiens, UniProt P36896); assay: SelectScreen kinase assay; conditions: for Inhibition at 1 µM (%): ACVR1B (ALK4), ZLYTE, ATP Km app
# T1 sequence (P36896 24-505): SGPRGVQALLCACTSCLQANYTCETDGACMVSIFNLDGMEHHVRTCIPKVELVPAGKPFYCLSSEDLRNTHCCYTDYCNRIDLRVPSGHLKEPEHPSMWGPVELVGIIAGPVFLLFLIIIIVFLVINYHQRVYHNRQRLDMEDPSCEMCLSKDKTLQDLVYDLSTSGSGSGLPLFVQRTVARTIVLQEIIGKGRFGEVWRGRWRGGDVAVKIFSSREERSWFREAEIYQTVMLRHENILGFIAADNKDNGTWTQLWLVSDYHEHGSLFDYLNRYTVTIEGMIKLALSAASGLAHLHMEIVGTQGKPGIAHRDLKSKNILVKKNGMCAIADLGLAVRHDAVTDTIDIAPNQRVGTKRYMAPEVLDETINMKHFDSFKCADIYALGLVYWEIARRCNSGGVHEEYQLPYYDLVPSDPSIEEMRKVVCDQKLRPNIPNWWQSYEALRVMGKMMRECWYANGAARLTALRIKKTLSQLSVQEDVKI
# Experimental: as §1
# [11] = molecular target: T2, MUSK (Homo sapiens, UniProt O15146); assay: SelectScreen kinase assay
# T2 sequence (O15146 24-869): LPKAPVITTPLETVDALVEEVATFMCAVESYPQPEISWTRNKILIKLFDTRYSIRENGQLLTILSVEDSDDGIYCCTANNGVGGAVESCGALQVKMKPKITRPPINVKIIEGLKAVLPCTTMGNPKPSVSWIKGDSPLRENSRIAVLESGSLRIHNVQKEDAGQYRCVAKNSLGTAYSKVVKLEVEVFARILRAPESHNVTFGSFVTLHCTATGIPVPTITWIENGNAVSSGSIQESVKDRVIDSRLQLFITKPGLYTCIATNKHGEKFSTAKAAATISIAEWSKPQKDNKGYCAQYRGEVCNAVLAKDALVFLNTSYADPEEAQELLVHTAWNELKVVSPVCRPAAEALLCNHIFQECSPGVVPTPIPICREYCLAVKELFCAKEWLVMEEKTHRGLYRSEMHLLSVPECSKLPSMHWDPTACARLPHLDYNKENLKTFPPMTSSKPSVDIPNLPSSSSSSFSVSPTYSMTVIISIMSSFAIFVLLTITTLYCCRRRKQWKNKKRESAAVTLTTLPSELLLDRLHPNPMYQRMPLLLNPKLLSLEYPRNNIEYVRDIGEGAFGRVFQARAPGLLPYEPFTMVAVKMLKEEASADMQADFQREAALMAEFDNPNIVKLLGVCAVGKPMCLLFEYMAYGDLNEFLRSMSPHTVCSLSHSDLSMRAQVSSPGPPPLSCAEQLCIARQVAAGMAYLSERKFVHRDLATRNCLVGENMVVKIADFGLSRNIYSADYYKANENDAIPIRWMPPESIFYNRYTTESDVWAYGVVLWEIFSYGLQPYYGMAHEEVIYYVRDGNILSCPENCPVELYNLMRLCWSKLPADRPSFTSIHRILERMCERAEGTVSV
# Experimental: as §1
# [12] = molecular target: PRKG1 (Homo sapiens, UniProt Q13976); assay: SelectScreen kinase assay
# Sequence of PRKG1 (Q13976 whole entry): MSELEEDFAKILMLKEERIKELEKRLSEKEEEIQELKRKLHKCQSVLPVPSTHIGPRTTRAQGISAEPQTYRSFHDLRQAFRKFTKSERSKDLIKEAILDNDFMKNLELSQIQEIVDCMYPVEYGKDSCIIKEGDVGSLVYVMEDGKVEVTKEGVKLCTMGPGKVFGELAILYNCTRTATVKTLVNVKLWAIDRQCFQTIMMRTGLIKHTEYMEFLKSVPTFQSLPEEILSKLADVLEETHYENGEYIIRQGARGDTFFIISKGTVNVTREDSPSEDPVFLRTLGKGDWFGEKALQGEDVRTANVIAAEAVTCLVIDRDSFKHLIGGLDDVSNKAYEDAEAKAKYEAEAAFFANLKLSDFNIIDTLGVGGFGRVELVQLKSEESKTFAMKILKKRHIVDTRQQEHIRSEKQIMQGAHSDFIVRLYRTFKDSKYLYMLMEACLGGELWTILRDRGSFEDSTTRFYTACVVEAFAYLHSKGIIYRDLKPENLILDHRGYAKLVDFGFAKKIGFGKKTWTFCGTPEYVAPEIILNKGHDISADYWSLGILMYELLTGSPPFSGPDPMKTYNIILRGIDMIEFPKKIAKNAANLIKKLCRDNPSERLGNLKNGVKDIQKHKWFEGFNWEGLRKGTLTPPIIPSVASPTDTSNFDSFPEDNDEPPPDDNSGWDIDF
# Experimental: as §1
# [13] = molecular target: SRC (Homo sapiens, UniProt P12931); assay: SelectScreen kinase assay
# Sequence of SRC (P12931 whole entry): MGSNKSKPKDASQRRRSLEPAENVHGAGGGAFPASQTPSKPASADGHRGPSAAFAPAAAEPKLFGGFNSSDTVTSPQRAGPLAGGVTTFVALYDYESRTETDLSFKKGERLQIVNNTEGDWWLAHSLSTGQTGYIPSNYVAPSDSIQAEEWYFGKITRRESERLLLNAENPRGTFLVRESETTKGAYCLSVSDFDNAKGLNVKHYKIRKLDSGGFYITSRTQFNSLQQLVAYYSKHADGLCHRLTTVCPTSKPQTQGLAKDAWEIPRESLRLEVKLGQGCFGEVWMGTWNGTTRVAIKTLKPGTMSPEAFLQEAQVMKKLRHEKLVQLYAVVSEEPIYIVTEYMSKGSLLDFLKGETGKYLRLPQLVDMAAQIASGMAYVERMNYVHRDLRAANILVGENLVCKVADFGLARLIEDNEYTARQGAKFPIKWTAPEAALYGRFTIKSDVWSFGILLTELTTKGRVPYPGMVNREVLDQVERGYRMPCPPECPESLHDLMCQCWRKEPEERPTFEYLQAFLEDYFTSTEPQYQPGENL
# Experimental: as §1
# [14] = molecular target: ROCK2 (Homo sapiens, UniProt O75116); assay: SelectScreen kinase assay; conditions: 1 h, 1 μM WEL028, 1 h preincubation
# Experimental: as §1
# [15] = molecular target: MAP3K3 (MEKK3) (Homo sapiens, UniProt Q99759); assay: SelectScreen kinase assay
# Sequence of MAP3K3 (MEKK3) (Q99759 whole entry): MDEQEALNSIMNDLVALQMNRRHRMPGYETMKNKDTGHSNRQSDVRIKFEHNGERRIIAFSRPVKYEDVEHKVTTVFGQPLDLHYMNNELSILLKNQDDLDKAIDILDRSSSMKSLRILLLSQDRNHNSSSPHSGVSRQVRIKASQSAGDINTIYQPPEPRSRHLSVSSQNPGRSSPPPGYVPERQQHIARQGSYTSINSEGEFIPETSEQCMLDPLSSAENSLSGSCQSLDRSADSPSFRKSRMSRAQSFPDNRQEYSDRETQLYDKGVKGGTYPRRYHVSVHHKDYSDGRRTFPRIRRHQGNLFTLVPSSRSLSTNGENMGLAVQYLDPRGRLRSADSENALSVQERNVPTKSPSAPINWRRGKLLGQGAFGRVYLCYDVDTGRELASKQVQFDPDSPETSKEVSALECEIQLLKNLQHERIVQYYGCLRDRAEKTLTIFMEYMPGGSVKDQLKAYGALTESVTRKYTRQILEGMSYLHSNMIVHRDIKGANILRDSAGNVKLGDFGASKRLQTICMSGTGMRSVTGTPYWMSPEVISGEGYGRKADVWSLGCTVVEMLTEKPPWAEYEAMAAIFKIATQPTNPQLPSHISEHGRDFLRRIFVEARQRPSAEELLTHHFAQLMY
# Experimental: as §1
# [16] = 1 h, 1 μM WEL028, 1 h preincubation
# [17] = 1 µM, ZLYTE, ATP Km app, listed as WEL028, 1 µM
# Sequence of FYN A (P06241 whole entry): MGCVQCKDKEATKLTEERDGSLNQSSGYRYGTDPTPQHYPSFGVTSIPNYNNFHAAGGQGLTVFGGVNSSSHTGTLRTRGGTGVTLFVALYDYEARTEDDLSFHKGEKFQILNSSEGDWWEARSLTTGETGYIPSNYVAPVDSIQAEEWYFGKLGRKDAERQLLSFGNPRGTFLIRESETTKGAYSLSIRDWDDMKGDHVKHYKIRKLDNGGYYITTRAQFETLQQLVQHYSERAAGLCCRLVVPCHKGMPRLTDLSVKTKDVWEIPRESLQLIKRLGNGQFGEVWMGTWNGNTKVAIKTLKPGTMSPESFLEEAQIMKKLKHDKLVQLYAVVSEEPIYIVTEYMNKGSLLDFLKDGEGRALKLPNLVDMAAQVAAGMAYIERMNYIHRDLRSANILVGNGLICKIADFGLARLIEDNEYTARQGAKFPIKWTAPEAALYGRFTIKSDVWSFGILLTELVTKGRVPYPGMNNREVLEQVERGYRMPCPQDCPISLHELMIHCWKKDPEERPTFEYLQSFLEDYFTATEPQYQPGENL
smiles,measurement,setting,value
C#CCOc1ccc(Nc2ncc(Cl)c(Nc3ccccc3NC(=O)C=C)n2)c(OC)c1 [Compound 6],inhibition at 1 µM,[1]; [16],3%
same,Inhibition at 1 µM (%),"[1]; FYN A, 1 µM, LanthaScreen Binding, listed as WEL028, 1 µM",-1% and 7%
same,Inhibition at 1 µM (%),"[2]; 1 µM, ZLYTE, ATP Km app",15%
same,inhibition at 1 µM,[2]; [16],5%
same,inhibition at 1 µM,[3]; 1 h,1%
same,inhibition at 1 µM,[3]; read-out: Inhibition at 1 µM (%),1%
same,inhibition at 1 µM,[4]; [16],12%
same,Inhibition at 1 µM (%),"[4]; PAK7 (KIAA1264), 1 µM, ZLYTE, ATP Km app, listed as WEL028, 1 µM",15%
same,inhibition at 1 µM,"[4]; read-out: Inhibition at 1 µM (%), PAK7 (KIAA1264), 1 µM, ZLYTE, ATP Km app",10%
same,CD11b-positive cells (%),[5]; WEL028 100 nM,79.481% and 79.680% and 76.989%
same,CD11b-positive cells (%),[5]; WEL028 1 µM,1.972% and 1.548% and 2.205%
same,inhibition at 1 µM,[6]; [16],3%
same,inhibition at 1 µM,"[6]; read-out: Inhibition at 1 µM (%), DDR2, 1 µM, LanthaScreen Binding",2%
same,inhibition at 1 µM,[7]; [16],1%
same,Inhibition at 1 µM (%),[7],2%
same,Inhibition at 1 µM (%),"[7]; listed as WEL028, 1 µM",0%
same,Inhibition (%),"[8]; 1 μM WEL028, 1 h preincubation",5%
same,Inhibition at 1 µM (%),"[8]; 1 µM, LanthaScreen Binding, listed as WEL028, 1 µM",5%
same,inhibition at 1 µM,"[8]; read-out: Inhibition at 1 µM (%), 1 µM, LanthaScreen Binding",4%
same,inhibition at 1 µM,[9]; [16],2%
same,Inhibition at 1 µM (%),"[9]; PRKACA (PKA), 1 µM, ZLYTE, ATP Km app, listed as WEL028, 1 µM",4% and -1%
same,inhibition at 1 µM,[10]; [16],1%
same,Inhibition at 1 µM (%),[10],-2%
same,Inhibition at 1 µM (%),"[10]; listed as WEL028, 1 µM",5%
same,inhibition at 1 µM,[11]; [16],26%
same,Inhibition at 1 µM (%),"[11]; MUSK, 1 µM, ZLYTE, ATP Km app, listed as WEL028, 1 µM",33%
same,inhibition at 1 µM,"[11]; read-out: Inhibition at 1 µM (%), MUSK, 1 µM, ZLYTE, ATP Km app",19%
same,Inhibition at 1 µM (%),[12]; [17],-6% and 0%
same,inhibition at 1 µM,[12]; [16],-3%
same,Inhibition at 1 µM (%),[13]; [17],8%
same,inhibition at 1 µM,[13]; [16],9%
same,inhibition at 1 µM,"[13]; read-out: Inhibition at 1 µM (%), 1 µM, ZLYTE, ATP Km app",10%
same,inhibition at 1 µM,[14],0%
same,inhibition at 1 µM,[15]; [16],7%
same,inhibition at 1 µM,"[15]; read-out: Inhibition at 1 µM (%), MAP3K3 (MEKK3), 1 µM, LanthaScreen Binding",8%
